# From US7816338B2, “Compositions and methods for inhibiting car gene expression by RNA interference” (Sumitomo Chemical Company, Limited, priority 2007, dated 2010)
# Assays:
# [1] = system: CYP2B dependent pentoxyresorufin O-depentylation activity; experiment: CYP2B dependent PROD (pentoxyresorufin O-depentylation activity) in hepatocytes (Example 6); type: cell-based, rat; settings: PB and control siRNA (Cont) treatment; 72 hours after siRNA
# Experimental: Then, the culture medium is replaced with 2 mL of William's culture medium containing 7 μM of 7-pentoxyresorufin and 7 μM of dicumarol. The culture medium is incubated at 37° C. for 4 hours, and then the culture medium is recovered. The cells are mixed with 1000 U of β-glucronidase (bovine liver-derived) and 50 mM of sodium acetate solution (pH 5), which is left at 37° C. for 3 hours. Measurement of pentoxyresorufin O-depentylation activity is performed by measuring the amount of fluorescence per unit solution. Further, the measurement is carried out at an excitation wavelength of 530 nm and a fluorescence wavelength of 585 nm using a fluorophotometer (F-4010, manufactured by Hitachi). In evaluation of the results, the total amount of protein in the cells in which the substrate was treated is measured by the Protein assay kit (Bio-Rad) and the production amount of resorufin per unit protein (amount of pentoxyresorufin O-depentylation) is calculated on the basis of the calibration curve of resorufin. […] As a result, pentoxyresorufin O-depentylation activity is enhanced by PB and control siRNA (Cont) treatment as compared to the case of the untreated cells.
# CYP2B1 mRNA = experiment: CYP2B1 gene expression in PB-treated primary hepatocyte cultured cells (Example 5 (3))
# liver [2] = experiment: Centrilobular cell hypertrophy, histopathological examination of the liver (Example 11); type: in vivo, rat; settings: rats; group treated with PB and control siRNA (Cont)
# Experimental: Histopathological examination of the liver in the rats to which siRNA (CAR) or control siRNA (Cont) was administered by the methods described in (1) to (3) of Example 2 is performed by the method described in (5) of Example 2. As a result, centrilobular cell hypertrophy is increased in the group treated with PB and control siRNA (Cont) as compared to the case of the untreated animal group.
# liver [3] = experiment: Liver wet weight in rats (Example 10); type: in vivo, rat; settings: group treated with PB and control siRNA (Cont)
# Experimental: The wet weight of the liver in the rats to which siRNA (CAR) or control siRNA (Cont) was administered by the methods described in (1) to (3) of Example 2 is measured by the method described in (5) of Example 2. As a result, the liver weight is increased in the group treated with PB and control siRNA (Cont) as compared to the case of the untreated animal group.
structure (smiles),measurement,setting,value
"CCC1(c2ccccc2)C(=O)NC(=O)NC1=O [PB, Phenobarbital]",pentoxyresorufin O-depentylation activity as compared to the untreated cells,[1],enhanced
same,CYP2B1 mRNA expression increase compared to cells untreated with PB,CYP2B1 mRNA; cells treated with PB (50 nM) and control siRNA(Cont),about fivefold
same,CYP2B1 expression increase by PB treatment compared to cells untreated with compound,"CYP2B1 mRNA; cells which inhibited CAR (siRNA(CAR)), PB 50 nM",about twofold
same,centrilobular cell hypertrophy as compared to the untreated animal group,liver [2],increased
same,liver weight as compared to the untreated animal group,liver [3],increased
